Results from patent publication US20140363406A1, “ESTROGEN METABOLITE LEVELS AND CYP1B1 POLYMORPHISMS IN LUNG CANCER DIAGNOSIS, PROGNOSIS, AND RISK ASSESSMENT” (Institute for Cancer Research d/b/a The Research Institute …, priority 2012, published 2014).

Target: T1, CYP1B1 (Mus musculus, UniProt Q64429)
T1 sequence (Q64429 1-543): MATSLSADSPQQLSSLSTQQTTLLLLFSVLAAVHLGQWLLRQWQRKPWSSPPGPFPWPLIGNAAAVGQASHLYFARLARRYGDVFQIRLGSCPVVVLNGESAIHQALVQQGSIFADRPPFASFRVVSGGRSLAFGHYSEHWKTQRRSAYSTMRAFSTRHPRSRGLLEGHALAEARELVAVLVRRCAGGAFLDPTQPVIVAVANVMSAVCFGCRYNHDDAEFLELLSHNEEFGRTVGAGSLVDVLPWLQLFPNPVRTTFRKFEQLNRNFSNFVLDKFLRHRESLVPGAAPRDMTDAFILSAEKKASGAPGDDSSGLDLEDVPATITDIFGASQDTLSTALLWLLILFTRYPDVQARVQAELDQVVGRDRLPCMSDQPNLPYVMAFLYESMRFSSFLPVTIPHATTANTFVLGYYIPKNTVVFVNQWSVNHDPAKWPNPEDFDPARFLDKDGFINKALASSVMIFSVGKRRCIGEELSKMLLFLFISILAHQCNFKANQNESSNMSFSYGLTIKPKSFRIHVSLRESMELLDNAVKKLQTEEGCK
Experiment: Impact of Cyp1b1 deletion on lung estrogen/EM levels (Cyp1b1-KO vs Cyp1b1-WT 129SvJ mice), LC-MS2
Procedure: Animals. […] Smoke exposures were performed on female C57/B6 mice (1.5-2 years old) carrying a human APOE*4 transgene that were part of an atherosclerosis study at Duke University and fed a high-fat diet TD.88051. Animals had free access to food and water. All animal experimentation was approved by the Institutional Animal Care and Use Committees at Fox Chase Cancer Center and Duke University.
Genotyping. PCR-based genotyping of Cyp1b1 wild-type (Cyp1b1-WT) and knockout (Cyp1b1-K0) mice was performed using Choice Taq Blue DNA Polymerase Master mix (Denville Scientific, South Plainfield, N.J.) according to the following protocol: Wild-type primers—[…]
Lung tissue collection. Following euthanasia, the lungs were perfused by intracardiac injection with 30 ml phosphate buffered saline to flush out the blood. Perfused tissues were snap-frozen in liquid nitrogen and stored at −80° C. The accessory lobe of the lung was reserved for RNA extraction, whereas the remaining lobes were processed for estrogen metabolite analyses.
Sample preparation. Lung tissue samples (0.1-0.2 g per sample) from Cyp1b1-WT or Cyp1b1-KO mice (female and male, 12-14 weeks of age, n=4-5 per group) were thawed at room temperature, minced with scissors and transferred into 1.5 ml Eppendorf tubes. […] The tissue was homogenized on ice using a Tissue Tearor™ (Cole-Parmer, Vernon Hills, Ill.) at low and high speeds in two consecutive 15 s increments for a total of 30 s, and further sonicated on ice (five cycles of 10 s pulses with 10 s breaks between pulses). Eight milliliters of ethanol:acetone and […] each of stable isotope-labeled estrogen internal standards (0.32 ng/ml working standard solutions) were added to each tissue homogenate. The mixture was incubated on a rotator at room temperature for 1 h and centrifuged at 3000 ×g for 30 min. The ethanol:acetone tissue extract was transferred to a clean glass tube and dried under nitrogen gas at 60° C. for 60 min (Reacti-Vap III™, Pierce, Rockford, Ill.). The residue was redissolved in 4 ml of methanol, vortexed for 1 min, chilled at -80° C. for 1 h, returned to room temperature and centrifuged at 3000 × g for 20 min. The methanolic phase was transferred to a clean glass tube and dried under nitrogen gas. The residue was redissolved in 100 μl of ethanol and vortexed briefly. This step was followed by the addition of 1.5 ml of 100 mM sodium acetate buffer, pH 4.6, and 5 ml of dichloromethane to the residue and incubation at room temperature on a rotator for 30 min.
The extract was chilled at −80° C. for 10 min, returned to room temperature and centrifuged at 3000 × g for 20 min. The dichloromethane phase was transferred to a clean tube and dried. To each dried sample, 40 μl of 0.1 M sodium bicarbonate buffer, pH 9.0, and 40 μl of dansyl chloride solution (1 mg/ml in acetone) were added. After vortexing for 10 s, samples were heated at 70° C. (Reacti-Therm III™ Heating Module, Pierce, Rockford, Ill.) for 10 min to form the EM and SI-EM dansyl derivatives. All samples were centrifuged at 3000 ×g for 20 min and analyzed using LC-M5^2. The efficiency of extracting estrogen and its metabolites from the tissue cannot be measured accurately because a known amount of each metabolite cannot be placed in the tissue prior to extraction. Furthermore, the amount of estrogens/EM present at baseline is unknown.
LC-MS^2 analysis was performed using a Shimadzu Prominence UFLC system (Shimadzu Scientific Instruments, Columbia, Md.) coupled with a TSQ™ Quantum Ultra triple quadrupole mass spectrometer (Thermo Electron, San Jose, Calif.). The LC separation was carried out on a 50 mm long×2 mm […] column packed with 2.5 μm Synergi Hydro-RP particles (Phenomenex, Torrance, Calif.) maintained at 40° C. A 20 μl aliquot of each sample was injected onto the column.

**Q.** For C[C@]12CC[C@@H]3c4cc(O)c(O)cc4CC[C@H]3[C@@H]1CCC2=O [2-OHE1, 2-hydroxyestrone], which “percentage of total estrogen, male versus female (in words)” value (Cyp1b1-KO mice) is on record?
**A.** no significant difference

**Q.** What about the “increase in lung level in Cyp1b1-KO compared with WT controls” value (females) of the same compound?
**A.** 3 fold

**Q.** And the “increase in lung level in Cyp1b1-KO compared with WT controls” value (males)?
**A.** 1.7 fold

**Q.** What does the source list for C[C@]12CC[C@@H]3c4ccc(O)c(O)c4CC[C@H]3[C@@H]1CCC2=O [4-OHE1, 4-hydroxyestrone]?
**A.** decrease in lung level by deletion of Cyp1b1 (female Cyp1b1-KO vs WT): 21 fold; lung level in Cyp1b1-KO as % of WT controls (females): 4.7%; decrease in lung level by deletion of Cyp1b1 (male Cyp1b1-KO vs WT): 14 fold; lung level in Cyp1b1-KO as % of WT controls (males): 7.4%

**Q.** Which “lung level reduced in Cyp1b1-KO compared with Cyp1b1-WT controls” value (shortened to “lung level reduced in Cyp1b1-KO”) (both sexes) does the source give for C[C@]12CC[C@@H]3c4ccc(O)c(O)c4CC[C@H]3[C@@H]1CC[C@@H]2O [4-OHE2, 4-hydroxyestradiol] here?
**A.** ~50%

**Q.** What about the “lung level reduced in Cyp1b1-KO” value (females) of the same compound?
**A.** 60%

**Q.** What about the “lung level reduced in Cyp1b1-KO” value (males) of the same compound?
**A.** 56%
